For experiment [1], the target named is T1, neutral/alkaline ceramidase (Pseudomonas aeruginosa, UniProt Q9I596).
T1 construct: the culture liquid was sterilized through filtration; endogenous in cells; host or cells: Pseudomonas aeruginosa (human clinical isolate), sterile-filtered culture supernatant, not purified
Description: Neutral/alkaline ceramidase activity inhibitory test. It is filed as biochemical. As to conditions: enzyme liquid from Pseudomonas aeruginosa culture; C12-NBD Ceramide substrate; pH 8.5; 37° C., 2.5 hours; TLC fluorescence; read-out: neutral/alkaline ceramidase inhibitory activity in terms of IC50 (converted). The protocol: A seed medium used was prepared as follows. Specifically, 3 g of Nissui Trypto-Soya Broth (product of Nissui Seiyaku) was dissolved in 100 mL of deionized water, and the resultant solution was dispensed into test tubes so that each test tube contained 3 mL of the solution, followed by high-pressure sterilization. Then, Pseudomonas aeruginosa (human clinical isolate) was inoculated into the seed medium in an amount of 2% by volume, and seed culturing was performed in a water bath at 37° C. and 100 rpm for 3 hours.
A synthetic medium for main culturing was prepared as follows. […]
Neutral/alkaline ceramidase activity was measured according to the method used by Okino et al. (J. Biol. Chem. 273, 14368-14373, 1998) with minor modifications. […]
The above solution (20 μL) was spotted onto a TLC plate (MERCK 25 TLC plates 20 cm×20 cm Silica gel 60 F254) and developed (chloroform:methanol ammonia (25%)=90:20:0.5, by volume). Subsequently, Image Reader FLA 5000 (product of FUJIFILM Corporation) was used to measure the fluorescence derived from the substrate, and Science Lab 2001 ImageGauge (product of FUJIFILM Corporation) was used to calculate the inhibitory rate of substrate decomposition.

A further experiment relates to NC/Nga mice. Briefly: Therapeutic effects on atopic dermatitis-like model mice (mast cell count in skin). It is filed as in vivo. An excerpt:
Atopic dermatitis-like model mice were used to test ceramidastin for the therapeutic effects on atopic dermatitis. Specifically, the above-obtained enzyme liquid was applied onto the mice to examine the aggravation degree of corneal layer of epidermis and inflammation. In addition, the enzyme liquid and ceramidastin were applied thereonto to examine the effects on the skin brought by inhibiting neutral/alkaline ceramidase activity.
The atopic dermatitis-like model mice used were 6-week-old NC/Nga female mice (product of Charles River). The above NC/Nga mice are used as an atopic dermatitis model (Hiroi et al. Jpn. J. Pharmacol. 76, 175-183, 1998) and have an increased number of mast cells in the skin tissue.
Hair was removed in advance from the 6-week-old NC/Nga female mice under anesthesia (six mice for each group). Subsequently, absorbent cotton impregnated with acetone-ether (1:1) was pressed for 15 sec against them under anesthesia by nembutal. […]
The procedure of the above defatting and applications of ceramidase and ceramidastin was repeated 47 times in total so that it was performed twice in the morning and evening for 5 days a week. […] The thus-formed tissue pieces were stained with toluidine blue, and the number of mast cells in the tissue was counted under a microscope.

This is an account of results in patent publication US8263369B2, “Compound ceramidastin, method for producing the same, and use of the same” (Microbial Chemistry Research Foundation, priority 2008, dated 2012).

T1 sequence (Q9I596 25-670): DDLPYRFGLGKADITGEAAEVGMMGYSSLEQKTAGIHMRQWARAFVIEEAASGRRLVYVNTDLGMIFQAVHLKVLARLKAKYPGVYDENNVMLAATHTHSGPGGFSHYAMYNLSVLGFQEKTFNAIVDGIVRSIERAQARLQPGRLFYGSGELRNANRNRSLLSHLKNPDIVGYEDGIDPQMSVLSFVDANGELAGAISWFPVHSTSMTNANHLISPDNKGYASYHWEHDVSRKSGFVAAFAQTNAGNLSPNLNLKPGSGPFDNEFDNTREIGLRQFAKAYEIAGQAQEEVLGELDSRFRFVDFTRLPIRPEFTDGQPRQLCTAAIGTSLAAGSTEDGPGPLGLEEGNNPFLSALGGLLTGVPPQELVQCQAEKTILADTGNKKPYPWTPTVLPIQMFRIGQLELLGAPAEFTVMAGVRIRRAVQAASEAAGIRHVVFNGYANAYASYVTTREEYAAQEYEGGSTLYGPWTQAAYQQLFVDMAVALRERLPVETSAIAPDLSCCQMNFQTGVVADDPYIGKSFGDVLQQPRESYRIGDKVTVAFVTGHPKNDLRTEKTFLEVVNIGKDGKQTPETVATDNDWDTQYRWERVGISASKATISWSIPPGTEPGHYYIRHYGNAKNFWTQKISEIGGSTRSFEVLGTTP

Consider `CCCCCCC(O)C1C2=C(CC(C(O)C(O)C/C=C/CO)CC3=C(C(=O)OC3=O)C1O)C(=O)OC2=O` (stereo not drawn) [ceramidastin], for which the IC50 in experiment [1] was 12 µM. In addition, in the experiment with NC/Nga mice (NC/Nga female mice, defatting + ceramidase + 0.2 mL ceramidastin 1 mg/mL on skin, 47 times, toluidine blue, ceramidase-applied 22.6±8.5, untreated 13.04±4.38), the “number of mast cells in mouse skin pieces” value is recorded as 15.5±5.2. Moreover, the “effect on increase in the number of mast cells” value in the experiment with NC/Nga mice (ceramidase+ceramidastin-applied skin pieces vs ceramidase-applied skin pieces, NC/Nga mice) is recorded as “significantly inhibited”.
